The values below come from US7071220B2, “N-substituted benzothiophenesulfonamide derivatives” (Toa Eiyo Ltd., priority 2000, dated 2006).

Where a chain is given by its changes, count along the chain named. Where two headings read alike, the source gives them in different places. Bounds are passed on as bounds.

One data set concerns the target T1, Chymotrypsin (Bos taurus, UniProt P00766).
T1 construct: Chymotrypsin Type I-S derived from bovine pancreas; purchased SIGMA Type I-S; host or cells: bovine pancreas
As to the kind of experiment: Measurement of chymotrypsin inhibitory activity (Suc-Ala-Ala-Pro-Phe-pNA). The settings on record: Chymotrypsin Type I-S from bovine pancreas; 30 minutes at 37° C. It counts as biochemical. Here is the method: (§1) Measurement of Cathepsin G Inhibitory Activity and Chymotrypsin Inhibitory Activity
(§2) Each activity of cathepsin G or chymotrypsin was measured by determining the amount of free p-nitroaniline quantitatively using a synthetic substrate that is colorless and yields colored product upon hydrolysis, by means of a spectrophotometer. Chymotrypsin Type I-S derived from bovine pancreas was purchased from SIGMA. As cathepsin G, the product of Elastin Products Company, Inc. derived from human purulent sputum was used. Suc-Ala-Ala-Pro-Phe-pNA (manufactured by SIGMA) was used as the synthetic substrate. An inhibitory effect of a compound on each enzyme was determined by the following method.
(§3) Each test compound (5 μmol) was weighed in a test tube and dissolved into 2 mL of DMSO. […] Then, 200 μL of 1 mmol/L substrate solution was added to initiate en enzymatic reaction under a temperature of 37° C.
(§4) Based on each inhibitory ratio, IC50 value was calculated.

For another data set, the target named is T2, Cathepsin G (Homo sapiens, UniProt P08311).
T2 construct: the product of Elastin Products Company, Inc. derived from human purulent sputum was used; purchased Elastin Products Company, Inc; host or cells: human purulent sputum
T2 sequence (P08311 21-244): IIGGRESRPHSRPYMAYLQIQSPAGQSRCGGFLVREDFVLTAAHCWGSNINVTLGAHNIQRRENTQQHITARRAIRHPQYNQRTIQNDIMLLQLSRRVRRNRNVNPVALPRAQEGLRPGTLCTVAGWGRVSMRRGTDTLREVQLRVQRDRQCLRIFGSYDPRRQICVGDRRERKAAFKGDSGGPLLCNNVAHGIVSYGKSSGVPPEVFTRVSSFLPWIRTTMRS
As to the kind of experiment: Measurement of cathepsin G inhibitory activity (Suc-Ala-Ala-Pro-Phe-pNA). In kind it is biochemical. The settings on record: cathepsin G from human purulent sputum; 60 minutes at 37° C. As to the method:
as §1, §2, §3, §4

Data set [1] relates to rat cecum-scraped adhesion model. As to the kind of experiment: Investigation in rat cecum-scraped adhesion model. In kind it is in vivo. The settings on record: 2 mL PBS solution 10^−5 mol/L intraperitoneally; 1 week after operation; control 63.6%. As to the method: Investigation in Rat Cecum-scraped Adhesion Model
Six-week-old SD rats were subjected to midline incision at lower abdominal region under pentobarbital anesthetization (70 mg/kg, intramuscular injection), and the cecum was taken out of the incised part. Two parts of serous membrane of the cecum (about 2 cm^2 each) were rubbed with a cotton swab a hundred times until petechial hemorrhage occurs, followed by dropwise addition of 100 μL of ethanol. The cecum was again set in abdominal cavity, and then, 2 mL of a phosphate buffered saline (hereinafter, abbreviated as PBS, pH 7.4) solution of a test compound (Compound 24 or 70) was added dropwise intraperitoneally, and then the incised part was sutured. The concentration of each test compound solution was 10^−5 mol/L in a control group, PBS alone was added dropwise, followed by a similar treatment. Each group had 11 or 12 rats. After 1 week from the operation, the animals were slaughtered, the abdominal part was re-incised and an adhesion state of the cecum was evaluated according to adhesion scores using the adhesion intensity and adhesion area as indexes. The score values were determined according to the following 5-grade scores. In this connection, adhered region (%) was determined as percentage of total area of the adhered parts relative to the area of the rubbed regions. […]

Another data set has as its target T3, Simian chymase (Macaca mulatta, UniProt F6SAJ2).
T3 sequence (F6SAJ2 22-247 limits assumed): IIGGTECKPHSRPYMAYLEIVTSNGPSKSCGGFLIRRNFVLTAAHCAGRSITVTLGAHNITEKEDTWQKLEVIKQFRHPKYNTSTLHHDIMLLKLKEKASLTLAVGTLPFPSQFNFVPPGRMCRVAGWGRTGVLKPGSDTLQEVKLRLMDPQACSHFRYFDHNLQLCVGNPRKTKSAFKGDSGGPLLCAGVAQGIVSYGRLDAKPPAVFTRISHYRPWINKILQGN
Put plainly: Measurement of inhibitory activity of simian chymase (Ang I substrate, His-Leu/OPT fluorescence). It counts as biochemical, rhesus monkey.

For data set [2], the system named is rat monocrotaline-induced pulmonary hypertension model. Put plainly: Test in rat monocrotaline-induced pulmonary hypertension model. It counts as in vivo. As to the method:
Test in Rat Monocrotaline-Induced Pulmonary Hypertension Model
Into 1.2 mL of 1 mol/L hydrochloric acid was dissolved 200 mg of monocrotaline, followed by addition of 5 mL of distilled water. The solution was neutralized with 0.5 mol/L sodium hydroxide, and further diluted with distilled water so as to be 10 mL (20 mg/mL). Moreover, a solution containing the solvent alone without monocrotaline was prepared as Solvent A. A test compound was suspended into olive oil (25 mg/mL). Furthermore, a solution containing no test compound but the solvent alone was prepared as Solvent B.
Monocrotaline (60 mg/kg-body weight) was administrated subcutaneously at the posterior region of neck of five 5-week-old SD male rats. From 3 days before monocrotaline administration to 20 days after the administration, a test compound was administered intraperitoneally twice a day at a dose of 50 mg/kg-body weight. On the next day of the final administration of the test compound, the rats were fixed supinely under anesthetization with intraperitoneal administration of sodium pentobarbital. And then blood pressure was measured with cannula inserted from left carotid artery and systolic pressure at right ventricle was measured with cannula inserted from right […] and introduced into right ventricle, via a pressure transducer by means of a pressure-strain gauge. After slaughter of the animals, the heart was removed and weight of right ventricle, weight of left ventricle and septum, and diameter and medial thickness of pulmonary artery having a diameter within a range of 50 to 150 μm were measured. Moreover, from these measured values, a weight ratio of right ventricle/(left ventricle+septum) and medial thickening ratio {(medial thickness/outer diameter of the blood vessel)×100} were determined. In this regard, a group wherein the rats to which monocrotaline was administered was treated with Solvent B alone in an amount of 2 mL/kg-body weight in the same administration schedule as above was named “Solvent-administered group”. In addition, a group wherein the rats to which Solvent A was administered in an amount of 3 mL/kg-body weight was treated with Solvent B in an amount of 2 mL/kg-body weight was named “Monocrotaline-untreated group”.

The target in a further data set is T4, Human chymase (Homo sapiens, UniProt P23946).
T4 sequence (P23946 22-247): T3 sequence (F6SAJ2 22-247 limits assumed) with S29F, K63E, Y159D, L201S, K221Q, G225A
Put plainly: Measurement of inhibitory activity of human chymase (Ang I substrate, His-Leu/OPT fluorescence).

Another data set in a line: Stability in rat plasma. In kind it is in vitro ADME. The settings on record: 10 μg/mL, 37° C., 60 minutes, HPLC. As to the method:
Stability of the compounds of the invention in rat plasma was investigated.
Male SD rats (7-week-old) were anesthetized with ether under over-night fasting conditions and, after an abdominal part was incised, blood was collected from aorta abdominalis using a heparinized disposable plastic syringe. The blood was centrifuged under cooling to collect a supernatant plasma. The collected plasma was stored under freezing at −30° C. and was melted before use. After a test compound was dissolved in DMSO, the solution was added to 200 μL of the plasma so as to be 10 μg/mL, followed by incubation at 37° C. After 60 minutes, the mixture was acidified by adding 200 μL of 0.1 mol/L hydrochloric acid, and then extracted twice with 2 mL of ethyl acetate. The resulting organic layer was evaporated to dryness under a nitrogen gas flow and the residue was dissolved into 200 μL of acetonitrile to prepare a sample solution. On the other hand, the test compound was dissolved into 1% acetonitrile solution of DMSO so as to be 10 μg/mL as a control solution. The sample solution and control solution was investigated by high performance liquid chromatography (hereinafter, abbreviated as HPLC). Residual ratio (%) was determined as percentage by dividing the peak area of the sample solution by the peak area of the control solution.
Column: Waters Nova Pack C18 (inner diameter: 3.9 mm, length: 150 mm)
Mobile phase A: acetonitrile/water=10/90
Mobile phase B: acetonitrile/methanol=50/50
Eluent: Mobile phase A-mobile phase B (100/0 to 0/100, linear gradient, 50 minutes)
Amount of injection: 50 μL

For a further data set, the system named is hamster adhesion model. As to the kind of experiment: Investigation in hamster adhesion model. It counts as in vivo. The settings on record: 1 mL saline solution 10^−4 mol/L intraperitoneally; 4 weeks after operation; 5-grade score 0-4; control 2.0; p<0.05. As to the method: Investigation in Hamster Adhesion Model
Five-week-old female hamster (10 hamsters per each group) was anesthetized by administering intraperitoneally pentobarbital sodium (50 mg/kg) and, after midline incision at abdominal region, the uterus was rubbed with a cotton swab. Thereafter, 1 mL of saline solution of a test compound (Compound 24: 10^−4 mol/L) was added dropwise intraperitoneally, and then the incised part was sutured. On the other hand, as a control, saline alone was added dropwise, followed by a similar treatment.
After 4 weeks from the operation, the animals were slaughtered, the abdominal part was exposed and adhesion was investigated. The adhesion was judged using the following 5-grade scoring system and the data were analyzed according to Mann-Whitney U test.
(§5) 1: Very weak adhesion (film-like adhesion easily releasable)
(§6) 2: Limited adhesion (strong adhesion difficult to release at only one point)
(§7) 3: Wide-range adhesion (strong adhesion difficult to release at several points)
(§8) 4: Very strong adhesion (very strong adhesion impossible to release)

Data set [3] deals with canine eye postoperative adhesion model. Put plainly: Investigation in canine eye postoperative adhesion model. The settings on record: sponge with saline solution 10^−4 mol/L for 3 minutes; 7 days after operation; 5-grade score 0-4; control 3.67; p<0.05. In kind it is in vivo, beagle dog. Here is the method: Investigation in Canine Eye Postoperative Adhesion Model
A beagle dog was anesthetized and each conjunctiva of both eyes thereof was peeled in a size of 10 mm×5 mm under a stereomicroscope. At that time, Tenon was left at conjunctival side and was not left at scleral side. After a sponge immersed in a saline solution of a test compound (Compound 70) was placed at the incised part for 3 minutes, the incised part was put in one stitch with 10-0 nylon thread. The concentration of the test compound solution was 10^−4 mol/L and a saline was used in a control group (6 dogs per each group).
After 7 days from the operation, the animals were slaughtered, the eyeballs were taken out and adhesion was investigated. After the thread used at the stitching in the model preparation was cut, evaluation was carried out by pulling the conjunctiva part with tweezers and scoring the adhesion state. The score values were determined according to the following 5-grade scores, and Mann-Whitney U test was used for analyzing the data.
as §5, §6, §7, §8

[4] abbreviates: monocrotaline-treated SD male rats, 50 mg/kg intraperitoneally twice a day, 3 days before to 20 days after monocrotaline.
[5] abbreviates: chymase from heart of rhesus monkey, 120 minutes at 37° C., read-out: Simian chymase IC50 value.

Method for Human chymase: (§9) That is, the activity was measured by reacting free His-Leu formed together with Ang II with o-phthalaldehyde (hereinafter, abbreviated as OPT) to prepare a fluorescent derivative and determining the amount quantitatively by means of a fluorophotometer.
(§10) First, 3.6 μmol of each test compound was weighed in a test tube and was dissolved into 3 mL of DMSO. The DMSO solution was diluted 1000-fold with 20 mmol/L Tris-hydrochloric acid buffer solution (pH 8.0) containing 0.01% Triton X-100 and 0.5 mol/L potassium chloride to prepare 1.2×10^−6 mol/L solution, which was successively diluted with the buffer solution to prepare test sample solutions having concentrations of 1.2×10^−6 mol/L to 1.2×10^−9 mol/L. To 500 μL of the test sample solution of each concentration or buffer solution was added 50 μL of an enzyme solution, followed by 10 minutes of pre-incubation at 37° C. Then, 50 μL of 0.1 mmol/L Ang I solution was added to initiate a reaction. Human angiotensin I (manufactured by SIGMA) was employed as Ang I. The enzyme solution to be used for the reaction was adjusted so as to hydrolyze about 60% of substrate under the conditions, and the reaction wherein a buffer solution containing no enzyme was carried out as a blind test. […] Thereafter, the reaction mixture was centrifuged at 4° C. at 3,000 rpm for 10 minutes and 2 mL of 2 mol/L sodium hydroxide and 1 mL of methanol were added to 1 mL of the resulting supernatant. […] The measurement was repeated twice for each sample and blind test. The fluorescence intensity obtained by subtracting the average value at blind test from the average value thereof was determined as chymase activity.
(§11) In this regard, an enzymatic reaction using a buffer solution instead of the test sample solution was carried out as a control, and inhibitory ratio of chymase activity was determined as percentage by dividing the difference of subtraction of the activity at the addition of the test compound from the chymase activity at the control by the chymase activity at the control.
Method for Simian chymase: as §9, §10, §11

For the molecule `COC(=O)c1ccc(NS(=O)(=O)c2sc3ccc(Cl)cc3c2C)c(OC)c1` [Compound 7, Methyl 4-(5-chloro-3-methylbenzo[b]thiophene-2-sulfonylamino)-3-methoxybenzoate], the IC50 on Chymotrypsin and against Cathepsin G was > 1000 nM each time. Further, the “total percentage of scores 3 and 4 showing severe adhesions” value in data set [1] came out at 33.3%.

For `COC(=O)c1ccc(NS(=O)(=O)c2sc3ccc(F)cc3c2C)c(S(C)(=O)=O)c1` [Compound 17, methyl 4-(5-fluoro-3-methylbenzo[b]thiophene-2-sulfonylamino)-3-methanesulfonylbenzoate], the IC50 at Simian chymase is 9 nM; on Chymotrypsin, > 10000 nM; against Cathepsin G, > 10000 nM; on Human chymase (read-out: Human cymase IC50 value, human chymase from silkworms infected with baculovirus, 120 minutes at 37° C.) it was 56 nM. For the same molecule, the Medial thickening ratio in data set [2] ((medial thickness/outer diameter of the blood vessel)×100, pulmonary artery 50 to 150 μm, 50 mg/kg intraperitoneally twice a day) is 10.55 ± 1.80. In [2] (monocrotaline-induced pulmonary hypertension, result in words), the “thickening of medial muscular layer (increase of medial thickening ratio)” value is “suppressed”. In addition, the “Weight ratio of right ventricle/(left ventricle + septum)” value in [2] (monocrotaline-treated SD male rats, 50 mg/kg intraperitoneally twice a day) was determined as 0.39 ± 0.04. In data set [2] (setting [4]), this molecule showed an Average blood pressure of 111 ± 19 mmHg. Also, the “Systolic pressure at right ventricle” value in data set [2] (setting [4]) was found to be 57 ± 11. Moreover, in [2] (setting [4]), the “Weight of right ventricle” value was determined as 233 ± 24 mg.

`Cc1c(S(=O)(=O)Nc2ccc(-c3nc(C(=O)O)co3)cc2S(C)(=O)=O)sc2ccc(F)cc12` [Compound 24, 2-[4-(5-fluoro-3-methylbenzo[b]thiophene-2-sulfonylamino)-3-methanesulfonylphenyl]oxazole-4-carboxylic acid] returned a melting point of 207 to 208 °C. The IC50 at Simian chymase (setting [5]) stood at 2 nM. On Chymotrypsin, the IC50 was > 10000 nM. On Cathepsin G, the IC50 is > 10000 nM. Moreover, the “Residual ratio in rat plasma” value in the data set “Stability in rat plasma” came to 100%. In the data set on hamster adhesion model, this molecule displayed an average adhesion score of 0.9. Also, the “total percentage of scores 3 and 4 showing severe adhesions” value in data set [1] is 41.7%. On Human chymase, this molecule gave an IC50 of 37 nM.

`Cc1c(S(=O)(=O)Nc2ccc(-c3cnco3)cc2S(C)(=O)=O)sc2ccc(F)cc12` [Compound 48] yielded a melting point of 199 to 201 °C. Also, at Simian chymase (setting [5]), the IC50 was determined as 6 nM. Moreover, on Chymotrypsin, the IC50 was > 10000 nM. In addition, the IC50 against Cathepsin G was > 10000 nM. The molecule also gave an IC50 against Human chymase of 45 nM.

With `Cc1c(S(=O)(=O)Nc2ccc(-c3nc(C(=O)O)cs3)cc2S(C)(=O)=O)sc2ccc(F)cc12` [Compound 70, 2-[4-(5-fluoro-3-methylbenzo[b]thiophene-2-sulfonylamino)-3-methanesulfonylphenyl]thiazole-4-carboxylic Acid], the IC50 is 0.4 nM at Simian chymase (setting [5]), > 10000 nM on Chymotrypsin, > 10000 nM at Cathepsin G and 7 nM against Human chymase. In addition, the average adhesion score in data set [3] came to 2.67.
